Where a SMILES comes first, the peptide text is derived from it. The star is where a group is joined. X1 = CCCCCCCCCCCCCCCC(=O)OCC(C*)OC(=O)CCCCCCCCCCCCCCC; Palmitoyl = CCCCCCCCCCCCCCCC(=O)*
Assays:
Splenocytes [1] = experiment: OVA stimulated splenocyte proliferation (MTT) in immunized mice; assay type: in vivo, BALB/c mice; settings: OVA antigen; mice immunized s.c., conjugates 2-80 μg, booster 14th day; MTT after 48 h
Procedure: (§1) 13.1 Preparation and immunization of the vaccine: Male BALB/c mice (Procured from laboratory animal facility of National Institute of Nutrition, Hyderabad, IAEC No. IICT/Bio/fox/PG/1/02/2013) were immunized subcutaneously with different groups according to various concentrations of conjugates covered in examples 1-12, preferably 2 to 80 μg/dose, more preferably 6 to 50 μg/dose, most preferably 8 to 40 μg/dose, along with PBS (car no. TS1006, Himedia)and antigen control. A booster dose was given on 14th day and sacrificed 2 weeks after booster.
(§2) 1.2.1 Proliferation of immune cells: Splenocytes were seeded into 96 well flat bottom microtiter plates having 1×10^5 cells/well in complete RPMI-1640 medium (cat no. AT028-1L, Himedia). Plates were incubated at 37° C., with 5% CO2 incubator. After 48 h of incubation 20 μl of Triazolyl blue Tetrazolium Bromide (MTT) (cat no. M2128, Sigma-Aldrich. St. Louis, Mo.) solution (5 mg/mL) was added to each well, incubated for next 4 h. Untransformed MTT was removed from each well by aspirating the supernatant (180 μL)and replaced with DMSO (Sigma-Aldrich, St. Louis, Mo.). The absorbance was read at 630 nm after 15 min.
All triazolyl adjuvant conjugates induced splenocyte proliferation responses at the dose of 2-80 μg.

[2] = system: cytokines IL-2, IL-12, IFN-γ, TNF-α, IL-10, IL-6; experiment: Cytokine expression on immunization with OVA (ELISA); assay type: in vivo, BALB/c mice; settings: OVA antigen
Procedure: as §1
(§3) 1.2.2 Cytokine expression on immunization: ELISA was carried out by Opti Elisa Kit (cat no. 560485, BD biosciences, USA). Briefly, 96-Well plates were coated with capture antibody dissolved in coating buffer. Wells were blocked with PBS containing 0.05% Tween-20 for 1h at RT. After blocking, 100 μL/well of supernatant was added and incubated for overnight at 4° C. After washing, biotinylated secondary antibody was added along with enzyme. Plates were incubated for 1h at RT. Then plates were washed and substrate solution was added. The reaction was stopped and the absorbance was measured at 450 nm in ELISA reader (BioTek-Elx800).

OVA antigen = experiment: Antibody titre against OVA antigen and isotypes (ELISA); assay type: in vivo, BALB/c mice; settings: 28th day; for IgG titer: serum anti-OVA; for IgG1 titer / IgG 2a titer: serum, OVA immunized mice
Procedure: as §1
(§4) 1.2.2 Antibody titre against OVA antigen: From the immunized mice retro-orbital sampling or retro-orbital blood was collected on 14th and 28th day before sacrifice. Serum was separated by centrifugation at 12,500 rpm for 5 min. Transferred to a clean centrifuge tube and store at −80 until used. The plates were coated with OVA (1 μg/well) in carbonate buffer. Plates were incubated at 4° C., overnight. They were then washed 3 times with PBS/Tween, and non-specific binding sites were blocked by adding 200 μl of blocking solution. Plates were incubated at room temperature for 1 h. Then 3 times wash is done, diluted standards and samples to desired concentrations in blocking solution were added to the plates. Incubate at 37° C. for 1 h or at 4° C., overnight. Plates were washed 3 times with PBS/Tween. Avidin-Horseradish Peroxidase (Av-HRP, cat no. 45210, Biolegend, USA) was diluted and added. Incubated at room temperature for 30 min. Plates were washed 3 times with PBS/Tween. Substrate was added, mix equal volumes of TMB Reagent A and B(cat no. 421101, Biolegend, USA) immediately prior to use. Plates were incubated at room temperature (4-30 min) for color development. Color reaction was stopped by adding 50 μl of stop solution. Optical density (OD) was read at 450 nm.
(§5) 1.2.3 Isotypes of antigen specific antibody: The plates were coated with diluted unlabeled capture antibody to a final concentration of 0.5-8 μg/ml. Plates were incubated at 4° C. overnight. They were then washed 3 times with PBS/Tween, and non-specific binding sites were blocked by adding 200 μl of blocking solution. Plates were incubated at room temperature for 1 h. Washing is done thrice, diluted standards and samples to desire concentrations in blocking solution were added to the plates. Incubate at room temperature for 2-4 h or at 4° C., overnight. Plates were washed 3 times with PBS/Tween. Detection antibodies were added 0.25-2 μg/ml in blocking buffer, followed by incubation at room temperature for 1 h. Plates were washed 3 times with PBS/Tween. Avidin-Horseradish Peroxidase (Av-HRP) was diluted and added. Incubated at room temperature for 30 min. Plates were washed 5 times with PBS/Tween. Substrate was added, mix equal volumes of TMB Reagent A and B immediately prior to use. Plates were incubated at room temperature (0.4-30 min) for color development. Color reaction was stopped by adding 50 μl of stop solution. Optical density (OD) was read at 450 nm.
IgG1 and IgG2a were measured by sandwich ELISA.

Splenocytes [3] = experiment: HBsAg stimulated splenocyte proliferation in immunized mice; assay type: in vivo, BALB/c mice; settings: HBsAg antigen; conjugates 2-80 μg
Procedure: as §2
Vaccine was formulated with Hepatitis B antigen (HBsAg, cat. No HBS-870-c, ProspecBio, Israel))alone or with various adjuvants like Pam3CSK4 and their analogues. The adjuvanticity induced by each of the vaccine is determined by antibody titre, cytokine production and proliferation of immune cells.
(§6) Male BALB/c mice were immunized with different groups according to various concentrations of (conjugates)preferably 2 to 80 μg/dose, more preferably 6 to 50 μg/dose, most preferably 8 to 40 μg/dose, along with PBS and HBsAg antigen control. A booster dose was given on 14th day and sacrificed 2 weeks after booster.
2.2.1 Proliferation of immune cells: Splenocyte proliferation was measured by the same method as described in Example 13 except that HBsAg antigen. […]

[4] = system: cytokines IL-2, IL-12, IFN-γ, TNF-α, IL-10, IL-6; experiment: Cytokine expression on immunization with HBsAg (ELISA); assay type: in vivo, BALB/c mice; settings: HBsAg antigen
Procedure: as §3, §6
2.2.2 Cytokine expression on immunization: Cytokine expression was measured by the same method as described in the Example 13 except that HBsAg antigen.

HBsAg antigen = experiment: Antibody titre against HBsAg antigen (ELISA); assay type: in vivo, BALB/c mice; settings: 28th day; for IgG titer: serum anti-HBsAg; for IgG1 titer / IgG 2a titer: serum, HBsAg immunized mice
Procedure: as §4, §5, §6
2.2.3 Antibody titre against HBsAg antigen: Antibody titer was determined by the same method as described in the Example 13 except that HBsAg antigen.
Antibody titres IgG, IgG1 and IgG2a were measured by sandwich ELISA.

Human TLR-2 = target: T1, Human TLR-2 (Homo sapiens, UniProt O60603); experiment: Human TLR-2 reporter gene assay (NF-κB induction, SEAP); assay type: cell-based; settings: HEK-Blue hTLR2 cells, 24 h
T1 construct: host or cells: HEK-Blue hTLR2 cells (HEK293-derived reporter line)
T1 sequence (O60603 21-784): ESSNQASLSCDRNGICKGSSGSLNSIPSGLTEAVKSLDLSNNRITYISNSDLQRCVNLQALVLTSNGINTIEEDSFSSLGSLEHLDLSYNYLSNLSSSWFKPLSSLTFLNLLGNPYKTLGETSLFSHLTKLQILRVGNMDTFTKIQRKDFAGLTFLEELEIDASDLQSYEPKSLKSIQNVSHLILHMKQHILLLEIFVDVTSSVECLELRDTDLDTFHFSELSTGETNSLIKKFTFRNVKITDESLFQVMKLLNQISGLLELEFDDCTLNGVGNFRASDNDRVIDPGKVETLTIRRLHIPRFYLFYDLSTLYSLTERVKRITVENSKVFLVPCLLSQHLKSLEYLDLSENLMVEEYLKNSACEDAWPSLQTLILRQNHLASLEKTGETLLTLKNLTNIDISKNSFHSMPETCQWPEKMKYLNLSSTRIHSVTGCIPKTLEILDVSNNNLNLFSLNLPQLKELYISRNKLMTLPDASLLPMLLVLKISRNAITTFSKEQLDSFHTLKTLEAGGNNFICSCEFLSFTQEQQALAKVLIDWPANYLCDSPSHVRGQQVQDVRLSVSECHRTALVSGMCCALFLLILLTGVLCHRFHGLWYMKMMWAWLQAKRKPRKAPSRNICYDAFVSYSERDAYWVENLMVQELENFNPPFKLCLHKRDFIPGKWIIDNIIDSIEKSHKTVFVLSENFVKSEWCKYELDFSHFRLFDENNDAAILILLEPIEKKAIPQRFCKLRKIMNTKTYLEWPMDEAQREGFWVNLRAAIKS
Procedure: 2.2.4 Human TLR-2 reporter gene assays (NF-κB induction): The assay was performed as per the manufacturer's instructions. HEK-Blue™ hTLR2 cells (cat no. hkb-htlr2, Invivogen, USA, 25,000 cells per well) were harvested in HEK-Blue™ selection medium containing normocin treated with the compounds and the plate were incubated at 37° C. in 5% CO2 for 24 h. SEAP (secreted embryonic alkaline phosphatase) can be observed with naked eye and determined using a spectrophotometer at 620-655 nm.

[5] = system: extracellular markers CD4, CD8, CD80, CD86, CD40; experiment: Immunophenotyping, staining for extracellular markers (flow cytometry); assay type: cell-based
Procedure: 2.2.5 Immunophenotyping—Staining for extracellular markers: Staining was as per the manufacturer's protocol and run on a BD FACSVerse flow cytometer (cat nos. 557596, 553047, 560016 and 553723; BD Biosciences, USA). Compensation was established using BD Biosciences compensation beads. Post acquisition flow cytometry analysis was performed using FACS Suite software and data were represent in the mean fluorescence intensity values.

in vitro = assay type: cell-based; settings: rat, NRK-49F rat kidney cells
Procedure: 2.2.6 In vitro cytotoxicity evaluation by MTT assay: Rat kidney cell line NRK-49F (NCCS, Pune) was exposed to varying doses of test compounds in the range of […], to determine the toxicity after 48 h of incubation. The colorimetric MTT assay was used to evaluate cell viability which is determined based on reduction of MTT to blue formazan crystals by the mitochondrial succinate dehydrogenase enzymes of viable cells.

rat RBCs = assay type: cell-based; settings: red cells of rat
Procedure: 2.2.7 Hemolytic assay: Different concentration of test compounds were tested with fixed volume concentration of rat RBCs. After incubation for 30 min the percentage of hemolysis was determined by comparing the absorbance (k=540 nm) of the supernatant with that of distilled water as positive control.

CCCCCCCCCCCCCCCC(=O)N[C@@H](CSCC(COC(=O)CCCCCCCCCCCCCCC)OC(=O)CCCCCCCCCCCCCCC)C(=O)N[C@@H](CO)C(=O)N[C@@H](CCCCN)C(=O)N[C@@H](CCCCN)C(=O)N[C@@H](CCCCN)C(=O)N[C@@H](CCCCN)C(=O)O (stereo partly shown) [Standard (VacciGrade Pam3Cys) control] (Palmitoyl-C(X1)SKKKK-OH; N-terminus and C-terminus assumed)
Splenocyte proliferation (Splenocytes [1]): 200-350
Serum cytokines IFN-γ [2]: 100 to 140 pg/mL
Serum cytokines IL-2 [2]: 100 to 150 pg/mL
Serum cytokines IL-6 [2]: 100 to 120 pg/mL
Serum cytokines IL-10 [2]: 180 to 220 pg/mL
Serum cytokines IL-12 [2]: 80 to 140 pg/mL
Serum cytokines TNF-α [2]: 150 to 200 pg/mL
IgG titer (OVA antigen): 102400-819200
IgG1 titer (OVA antigen): 102400-1638400
IgG 2a titer (OVA antigen): 102400-3276800
Splenocyte proliferation (Splenocytes [3]): 250-500
Serum cytokines IFN-γ [4]: 250 to 325 pg/mL
Serum cytokines IL-2 [4]: 250 to 300 pg/mL
Serum cytokines IL-6 [4]: 250 to 295 pg/mL
Serum cytokines IL-10 [4]: 325 to 475 pg/mL
Serum cytokines IL-12 [4]: 150 to 250 pg/mL
Serum cytokines TNF-α [4]: 275 to 400 pg/mL
IgG titer (HBsAg antigen): 204800-819200
IgG1 titer (HBsAg antigen): 102400-409600
IgG 2a titer (HBsAg antigen): 204800-3276800
TLR Ligand activity, SEAP Absorbance (655 nm) (Human TLR-2): 1.2-2
Immunophenotyping (MFI) CD4 [5]: 1400-3000 MFI
Immunophenotyping (MFI) CD8 [5]: 2000-4000 MFI
Immunophenotyping (MFI) CD40 [5]: 1000-2500 MFI
Immunophenotyping (MFI) CD80 [5]: 1600-2500 MFI
Immunophenotyping (MFI) CD86 [5]: 1200-2000 MFI
viability at 48 h (in vitro): 95 to 100%
% Hemolysis (rat RBCs): 2-5%

B1: OVA control: experimental weak antigen ovalbumin (cat no. A5503, Sigma-Aldrich) given alone as antigen control (protein, UniProt P01012 2-386, looked up)
Ovalbumin: GSIGAASMEFCFDVFKELKVHHANENIFYCPIAIMSALAMVYLGAKDSTRTQINKVVRFDKLPGFGDSIEAQCGTSVNVHSSLRDILNQITKPNDVYSFSLASRLYAEERYPILPEYLQCVKELYRGGLEPINFQTAADQARELINSWVESQTNGIIRNVLQPSSVDSQTAMVLVNAIVFKGLWEKAFKDEDTQAMPFRVTEQESKPVQMMYQIGLFRVASMASEKMKILELPFASGTMSMLVLLPDEVSGLEQLESIINFEKLTEWTSSNVMEERKIKVYLPRMKMEEKYNLTSVLMAMGITDVFSSSANLSGISSAESLKISQAVHAAHAEINEAGREVVGSAEAGVDAASVSEEFRADHPFLFCIKHIATNAVLFFGRCVSP
IgG titer (OVA antigen): 6400-12800
IgG1 titer (OVA antigen): 6400-25600
IgG 2a titer (OVA antigen): 6400-12800
IgG titer (HBsAg antigen): 12800-51200
IgG1 titer (HBsAg antigen): 12800-102400
IgG 2a titer (HBsAg antigen): 12800-51200

From US9969763B2, “1,2,3-triazole-tethered carbohydrate-di and tri lipidated cysteine conjugates useful as vaccine adjuvants and process for preparation thereof” (Council of Scientific and Industrial Research, priority 2015, dated 2018)
